Patent publication US20050197350A1, “Novel quinoline, tetrahydroquinazoline, and pyrimidine derivatives and methods of treatment related to the use thereof” (TAISHO PHARMACEUTICAL CO., LTD., priority 2003, published 2005)

These compounds were tested on MCH receptors (assay: MCH receptor activity class (method not given)). Settings: MCH receptor activity class 1-3 (percent of control at 10^-7 M or IC50).

SMILES | class
CN(C)c1ccnc(N[C@H]2CC[C@@H](NC(=S)Nc3ccc(Br)cc3C(F)(F)F)CC2)n1 [compound 2330] | 3 (Class 3 The value of percent of control at 10^−7 M was more than 60% or the value of IC50 was more than 200 nM.)
CN(C)c1nc(N[C@H]2CC[C@@H](CNC(=O)NCc3ccccc3Cl)CC2)nc2c1CCCC2 [compound 2467] | 3 (Class 3 The value of percent of control at 10^−7 M was more than 60% or the value of IC50 was more than 200 nM.)

Same assay, conditions: MCH receptor; class by percent of control at 10^-7 M or IC50

SMILES | class
CN(C)c1cc(N[C@H]2CC[C@@H](CNC(=O)c3cccc([N+](=O)[O-])c3)CC2)nc2ccccc12 [compound 171, N-[(cis-4-{[4-(dimethylamino)quinolin-2-yl]amino}cyclohexyl)methyl]-3-nitrobenzamide] | 3 (Class 3 The value of percent of control at 10^−7 M was more than 60% or the value of IC50 was more than 200 nM.)
Cc1cc(C(=O)N[C@H]2CC[C@@H](Nc3cc(N(C)C)c4ccccc4n3)CC2)c(C)o1 [compound 71, N-(cis-4-{[4-(dimethylamino)quinolin-2-yl]amino}cyclohexyl)-2,5-dimethyl-3-furamide] | 1 (Class 1: The value of percent of control at 10^−7 M was less than 40% or the value of IC50 was less than 50 nM.)
CN(C)c1cc(N[C@H]2CC[C@@H](CNC(=O)c3cccs3)CC2)nc2ccccc12 [compound 179] | 3 (Class 3 The value of percent of control at 10^−7 M was more than 60% or the value of IC50 was more than 200 nM.)

Same assay, conditions: activity class 1-3: percent of control at 10^-7 M or IC50

SMILES | class
CN(C)c1cc(N[C@H]2CC[C@@H](CNC(=O)OCc3ccc([N+](=O)[O-])cc3)CC2)nc2ccccc12 [compound 1568] | 3 (Class 3 The value of percent of control at 10^−7 M was more than 60% or the value of IC50 was more than 200 nM.)
CC(C)[C@@H]1CC[C@@H](C)C[C@H]1OC(=O)N[C@H]1CC[C@@H](Nc2cc(N(C)C)c3ccccc3n2)CC1 [compound 1553] | 3 (Class 3 The value of percent of control at 10^−7 M was more than 60% or the value of IC50 was more than 200 nM.)

Same assay, conditions: activity class per percent of control at 10^-7 M or IC50

SMILES | class
CN(C)c1nc(N[C@H]2CC[C@@H](NC(=O)C(CC(=O)c3ccc(C(C)(C)C)cc3)c3cn(C)c4ccccc34)CC2)nc2c1CCCC2 (relative stereo) [compound 997] | 3 (Class 3 The value of percent of control at 10^−7 M was more than 60% or the value of IC50 was more than 200 nM.)
Cc1cc(C)c2occ(CN[C@H]3CC[C@@H](Nc4cc(N(C)C)c5ccccc5n4)CC3)c(=O)c2c1 [compound 1108] | 3 (Class 3 The value of percent of control at 10^−7 M was more than 60% or the value of IC50 was more than 200 nM.)
CN(C)c1nc(N[C@H]2CC[C@@H](NC(=O)c3cc(-c4ccccc4)nc4ccccc34)CC2)nc2c1CCCC2 [compound 1033] | 2 (Class 2: The value of percent of control at 10^−7 M was from 40% to 60% or the value of IC′50 was from 50 nM to 200 nM.)

Same assay, conditions: class 1-3 by percent of control at 10^-7 M or IC50

SMILES | class
CN(C)c1nc(N[C@H]2CC[C@@H](NC(=O)Cc3cccc4ccccc34)CC2)nc2c1CCCC2 [compound 525] | 3 (Class 3 The value of percent of control at 10^−7 M was more than 60% or the value of IC50 was more than 200 nM.)
COc1cccc(C(=O)N[C@H]2CC[C@@H](Nc3nc4c(c(N(C)C)n3)CCCC4)CC2)c1 [compound 456] | 1 (Class 1: The value of percent of control at 10^−7 M was less than 40% or the value of IC50 was less than 50 nM.)
CN(C)c1nc(N[C@H]2CC[C@@H](NC(=O)c3cc(Cl)cc(Cl)c3)CC2)nc2c1CCCC2 [compound 466, 3,5-dichloro-N-(cis-4-{[4-(dimethylamino)-5,6,7,8-tetrahydroquinazolin-2-yl]amino}cyclohexyl)benzamide] | 1 (Class 1: The value of percent of control at 10^−7 M was less than 40% or the value of IC50 was less than 50 nM.)
CN(C)c1nc(N[C@H]2CC[C@@H](NC(=O)c3ccc(SC(F)(F)F)cc3)CC2)nc2c1CCCC2 [compound 567] | 3 (Class 3 The value of percent of control at 10^−7 M was more than 60% or the value of IC50 was more than 200 nM.)

Same assay, conditions: class by percent of control at 10^-7 M or IC50

SMILES | class
CCC(C(=O)NC[C@H]1CC[C@@H](Nc2nccc(N(C)C)n2)CC1)c1ccccc1 (relative stereo) [compound 411, N-[(cis-4-{[4-(dimethylamino)pyrimidin-2-yl]amino}cyclohexyl)methyl]-2-phenylbutanamide] | 1 (Class 1: The value of percent of control at 10^−7 M was less than 40% or the value of IC50 was less than 50 nM.)
CN(C)c1ccnc(N[C@H]2CC[C@@H](NC(=O)c3ccc(Cl)c([N+](=O)[O-])c3)CC2)n1 [compound 245, 4-chloro-N-(cis-4-{[4-(dimethylamino)pyrimidin-2-yl]amino}cyclohexyl)-3-nitrobenzamide] | 1 (Class 1: The value of percent of control at 10^−7 M was less than 40% or the value of IC50 was less than 50 nM.)
CN(C)c1ccnc(N[C@H]2CC[C@@H](NC(=S)Nc3ccc(Br)cc3)CC2)n1 [compound 2257] | 3 (Class 3 The value of percent of control at 10^−7 M was more than 60% or the value of IC50 was more than 200 nM.)
Cc1ccc([N+](=O)[O-])c(NC(=O)N[C@H]2CC[C@@H](Nc3nc4c(c(N(C)C)n3)CCCC4)CC2)c1C [compound 1798] | 3 (Class 3 The value of percent of control at 10^−7 M was more than 60% or the value of IC50 was more than 200 nM.)
Cc1ccc(C)c(NC(=O)N[C@H]2CC[C@@H](Nc3nc4c(c(N(C)C)n3)CCCC4)CC2)c1 [compound 1850] | 3 (Class 3 The value of percent of control at 10^−7 M was more than 60% or the value of IC50 was more than 200 nM.)
CCOc1c(Br)cc(Br)cc1CNC[C@H]1CC[C@@H](Nc2nccc(N(C)C)n2)CC1 [compound 1325] | 2 (Class 2: The value of percent of control at 10^−7 M was from 40% to 60% or the value of IC′50 was from 50 nM to 200 nM.)
CN(C)c1cc(N[C@H]2CC[C@@H](NC(=O)Nc3ccccc3-c3ccccc3)CC2)nc2ccccc12 [compound 2124] | 3 (Class 3 The value of percent of control at 10^−7 M was more than 60% or the value of IC50 was more than 200 nM.)
COc1cc(CC(=O)N[C@H]2CC[C@@H](Nc3cc(N(C)C)c4ccccc4n3)CC2)ccc1OCc1ccccc1 [compound 736] | 3 (Class 3 The value of percent of control at 10^−7 M was more than 60% or the value of IC50 was more than 200 nM.)
COC(=O)c1cccc(NC(=O)N[C@H]2CC[C@@H](Nc3nc4c(c(N(C)C)n3)CCCC4)CC2)c1 [compound 1870] | 3 (Class 3 The value of percent of control at 10^−7 M was more than 60% or the value of IC50 was more than 200 nM.)
COc1cc(CN[C@H]2CC[C@@H](Nc3nccc(N(C)C)n3)CC2)cc(I)c1O [compound 1222] | 3 (Class 3 The value of percent of control at 10^−7 M was more than 60% or the value of IC50 was more than 200 nM.)
Cc1cc(Br)cc(C)c1NC(=S)N[C@H]1CC[C@@H](Nc2nc3c(c(N(C)C)n2)CCCC3)CC1 [compound 1763, N-(4-bromo-2,6-dimethylphenyl)-N′-(cis-4-{[4-(dimethylamino)-5,6,7,8-tetrahydroquinazolin-2-yl]amino}cyclohexyl)thiourea] | 1 (Class 1: The value of percent of control at 10^−7 M was less than 40% or the value of IC50 was less than 50 nM.)
CN(C)c1nc(N[C@H]2CC[C@@H](CNCc3ccc4c(c3)OCO4)CC2)nc2c1CCCC2 [compound 1424] | 3 (Class 3 The value of percent of control at 10^−7 M was more than 60% or the value of IC50 was more than 200 nM.)
Cc1ccc(NC(=S)N[C@H]2CC[C@@H](Nc3cc(N(C)C)c4ccccc4n3)CC2)c(Br)c1 [compound 2278] | 3 (Class 3 The value of percent of control at 10^−7 M was more than 60% or the value of IC50 was more than 200 nM.)
COc1cc(CNC[C@H]2CC[C@@H](Nc3nc4c(c(N(C)C)n3)CCCC4)CC2)cc(OC)c1O [compound 1375] | 3 (Class 3 The value of percent of control at 10^−7 M was more than 60% or the value of IC50 was more than 200 nM.)
CN(C)c1ccnc(N[C@H]2CC[C@@H](NCc3ccc(F)c(Cl)c3)CC2)n1 [compound 1242] | 3 (Class 3 The value of percent of control at 10^−7 M was more than 60% or the value of IC50 was more than 200 nM.)
Cc1cccc(C)c1NC(=S)N[C@H]1CC[C@@H](Nc2nc3c(c(N(C)C)n2)CCCC3)CC1 [compound 1741] | 3 (Class 3 The value of percent of control at 10^−7 M was more than 60% or the value of IC50 was more than 200 nM.)
CN(C)c1nc(N[C@H]2CC[C@@H](NC(=S)Nc3ccccc3-c3ccccc3)CC2)nc2c1CCCC2 [compound 1770] | 3 (Class 3 The value of percent of control at 10^−7 M was more than 60% or the value of IC50 was more than 200 nM.)

Same assay, conditions: class by percent of control at 10^−7 M or IC50

SMILES | class
Cc1cc(N(C)C)nc(N[C@H]2CC[C@@H](CNC(=O)c3ccc(F)c(C)c3)CC2)n1 [compound 2756] | 3 (Class 3 The value of percent of control at 10^−7 M was more than 60% or the value of IC50 was more than 200 nM.)
CCc1cccc(C(=O)N[C@H]2CC[C@@H](Nc3nc(C)c(C)c(N(C)C)n3)CC2)c1 [compound 2855, N-(cis-4-{[4-(dimethylamino)-5,6-dimethylpyrimidin-2-yl]amino}cyclohexyl)-3-ethylbenzamide] | 2 (Class 2: The value of percent of control at 10^−7 M was from 40% to 60% or the value of IC′50 was from 50 nM to 200 nM.)
COc1ccc(N(C)C(=O)N[C@H]2CC[C@@H](Nc3ncc(C)c(N(C)C)n3)CC2)cc1 [compound 3029, N′-(cis-4-{[4-(dimethylamino)-5-methylpyrimidin-2-yl]amino}cyclohexyl)-N-(4-methoxyphenyl)-N-methylurea] | 1 (Class 1: The value of percent of control at 10^−7 M was less than 40% or the value of IC50 was less than 50 nM.)
CCc1cccc(C(=O)N[C@H]2CC[C@@H](Nc3nc(C)cc(N(C)C)n3)CC2)c1 [compound 2970, N-(cis-4-{[4-(dimethylamino)-6-methylpyrimidin-2-yl]amino}cyclohexyl)-3-ethylbenzamide] | 3 (Class 3 The value of percent of control at 10^−7 M was more than 60% or the value of IC50 was more than 200 nM.)
